What was measured:
[1] = biological target: T1, human SCD1 (Homo sapiens, UniProt O00767); experiment: Measurement of human SCD1 binding activity (inhibition of binding of radiolabeled compound Z); conditions: 1 μM compound; human SCD1-expressing membrane fraction; compound Z radioligand; read-out: Rate of inhibition of SCD1 binding (%) at compound concentration of 1 μM
T1 construct: made in house; host or cells: High Five insect cells (baculovirus, pFastBac1/hSCD1); membrane fraction
T1 sequence (O00767 1-359): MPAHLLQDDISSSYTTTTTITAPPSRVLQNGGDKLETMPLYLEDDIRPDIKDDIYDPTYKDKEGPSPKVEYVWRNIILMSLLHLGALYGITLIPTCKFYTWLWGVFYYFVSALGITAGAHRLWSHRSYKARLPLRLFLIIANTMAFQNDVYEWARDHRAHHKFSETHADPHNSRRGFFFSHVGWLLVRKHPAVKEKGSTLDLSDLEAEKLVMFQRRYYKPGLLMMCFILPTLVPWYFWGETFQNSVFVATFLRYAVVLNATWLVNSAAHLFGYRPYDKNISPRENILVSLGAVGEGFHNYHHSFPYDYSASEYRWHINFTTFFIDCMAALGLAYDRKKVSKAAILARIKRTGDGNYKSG
Method: Measurement of Human SCD1 Binding Activity Using (5-(6-(1′H-spiro[1-benzofuran-3,3′-pyrrolidin]-1′-yl)pyridazin-3-yl)-1,2,4-oxadiazol-3-yl) [^3H2]methanol
The SCD1 binding activity of the compound of the present invention was measured as the activity of inhibiting the binding of (5-(6-(1′H-spiro[1-benzofuran-3,3′-pyrrolidin]-1′-yl)pyridazin-3-yl)-1,2,4-oxadiazol-3-yl)[^3H2]methanol (radiolabeled form of the compound disclosed as a SCD inhibitor in Example 157 of International Publication No. WO2008/096746; in the present specification, also referred to as compound Z) to SCD1.
Specifically, first, Human liver cDNA library (Takara Bio Inc.) was cloned as a template by PCR using KOD-Plus-(Toyobo Co., Ltd.) DNA polymerase. The primers used were 5′-[…]-3′ and 5′-[…]-3′. The amplification fragment was temporarily transferred to a pCR Blunt II-TOPO vector using Zero Blunt PCR Cloning Kit (Life Technologies, Inc.) to obtain pCR Blunt II-TOPO/hSCD1. A fragment obtained by the cleavage of this pCR Blunt II-TOPO/hSCD1 with BamHI and NotI was transferred to pFastBac1 (Life Technologies, Inc.) to construct a recombinant plasmid pFastBac1/hSCD1 for hSCD1 insect cell expression systems.
Baculovirus was prepared using the pFastBac1/hSCD1 plasmid according to the protocol of Bac-to-Bac Baculovirus Expression System (Life Technologies, Inc.).
The insect cells for use in expression were High Five cells (Life Technologies, Inc.) subcultured in a PSFM-J1 medium (Wako Pure Chemical Industries, Ltd.) containing 5% FBS, 10 U/L heparin (Sigma-Aldrich Corp.) and 50 μg/mL gentamicin.
The High Five cells were inoculated at 0.8×10^6 cells/mL and cultured until the following day. When the cell density reached 2.0×10^6 cells/mL, Ammonium Iron(III) Sulfate 12-Water (Wako Pure Chemical Industries, Ltd.) was added thereto at a final concentration of 10 μM. The cells were further infected with the baculovirus and cultured for 3 days.
After the completion of the culture, the culture solution was centrifuged (4° C., 4,000 rpm, […]) and frozen at −80° C. to obtain hSCD1-expressing insect cells. Next, the frozen hSCD1-expressing insect cells were suspended in buffer A (50 mM Tris-HCl (pH 7.5) containing 250 mM sucrose and cOmplete Protease Inhibitor Cocktail Tablets (F. Hoffmann-La Roche, Ltd.)), and the cells were disrupted (4° C., 20,000 rpm, 20 sec×2) using a POLYTORON homogenizer (Central Scientific Commerce, Inc.).
This cell lysate was centrifuged (4° C., 850×g, […]), and the supernatant was further ultracentrifuged (4° C., 186,000×g, 60 min). The supernatant was discarded, and buffer A was added to the precipitate. The resultant was suspended using POLYTRON (4° C., 10,000 rpm, 10 sec×2) and passed through a 40-μm cell strainer to prepare a human SCD1-expressing membrane fraction (hereinafter, also simply referred to as human SCD1). The protein concentration was measured using BCA Protein Assay Kit (Thermo Fisher Scientific, Inc.) with BSA used as standards.
The obtained primary dilution was diluted 250-fold by the addition of an assay buffer (10 mM Tris-HCl, pH 7.5, 100 mM KCl, 10 mM NaF, 3 mM MgCl2, 0.005% Tween 20, 1 mM GSH) to obtain a secondary dilution. The human SCD1 diluted using an assay buffer was dispensed at 100 μL/well (containing 0.2 μg of the protein) to a polypropylene 96-well plate, and then, the secondary dilution of the compound was added thereto at 50 μL/well. Further, a solution of 12 nM compound Z diluted with an assay buffer was added thereto at 50 μL/well, and the plate was left standing at room temperature for 2 hours. Then, the contents in each well were transferred to each well of UniFilter-96 GF/C PEI coated plate (PerkinElmer, Inc.) wetted with a washing buffer, followed by washing five times with a washing buffer (10 mM Tris-HCl, pH 7.5). After drying of the filter plate, Microscint-O (PerkinElmer, Inc.) was added thereto at 25 μL/well, and the obtained radioactivity was measured using TopCount (PerkinElmer, Inc.). […]

[2] = test system: human large intestine cancer cell line HCT116; experiment: Antitumor effect on human large intestine cancer cell line HCT116 cancer-bearing mice; assay type: in vivo, mouse; conditions: 10 mg/kg, 2 doses per day, orally for 14 days; HCT116 cancer-bearing BALB/c nude mice; tumor growth vs control group
Method: The compound of the present invention was evaluated for its antitumor effect on human large intestine cancer cell line HCT116 cancer-bearing mice by the following method.
The human large intestine cancer cell line HCT116 (purchased from ATCC (American Type Culture Collection)) was transplanted to each 6-week-old BALB/c female nude mouse (BALB/cA Jcl nu/nu: CLEA Japan Inc.) by the subcutaneous injection of 1.0×10^6 cells. After the transplantation, successfully engrafted tumor was observed, and the tumor size was measured 10 to 14 days after the transplantation. The tumor volume was calculated according to the following expression:
Tumor volume=Major axis×Minor axis×Minor axis×(½)
Individuals in which the volume of the engrafted tumor reached approximately 150 mm^3 were selected and used in the experiment as groups each involving 5 to 8 individuals. Each test compound was suspended in a 0.5% methylcellulose solution and orally administered to each individual for 14 days using the dose and the number of doses shown in the table below. Finally, in order to measure drug effects, the tumor volume was calculated from the tumor sizes at the day before the start of the administration and at the final day of the administration, and tumor growth in the test compound administration group compared with a control administration group given only a 0.5% methylcellulose solution was calculated as T/C according to the following expression:
T/C (%)=(Tumor volume after the completion of the administration of the test compound administration group−Tumor volume at the day before the start of the administration of the test compound administration group)/(Tumor volume after the completion of the administration of the control administration group−Tumor volume at the day before the start of the administration of the control administration group)×100

N#CC1(c2ccc(C(F)(F)F)cc2)CCN(c2ccc(-c3nc(CO)no3)nn2)CC1 [Example 38, 1-(6-(3-(Hydroxymethyl)-1,2,4-oxadiazol-5-yl)pyridazin-3-yl)-4-(4-(trifluoromethyl)phenyl)piperidine-4-carbonitrile]
inhibition at 1 µM [1]: 95%
T/C (%) [2]: 85.8%

— patent publication US20170015654A1, “PYRIDAZINE COMPOUND” (TAKEDA PHARMACEUTICAL COMPANY LIMITED, priority 2014, published 2017)
